Tests used:
KRAS G12D = biological target: T1, KRAS G12D (Homo sapiens, UniProt P01116, G12D); assay: HTRF assay, KRAS G12D interaction with SOS1; format: biochemical; settings: bins <500 nM / 500 nM to 1000 nM, read-out: Inhibition of KRAS G12D (IC50)
T1 construct: made in house; host or cells: E. coli, e.g. BL21 (DE3)

KRAS WT = biological target: T2, KRAS WT (Homo sapiens, UniProt P01116); assay: HTRF assay, wildtype KRAS interaction with SOS1; format: biochemical; settings: bins <500 nM / 500 nM to 1000 nM, read-out: Inhibition of KRAS WT (IC50)
T2 construct: made in house; host or cells: E. coli, e.g. BL21 (DE3)
T2 sequence (P01116 1-188 isoform P01116-2): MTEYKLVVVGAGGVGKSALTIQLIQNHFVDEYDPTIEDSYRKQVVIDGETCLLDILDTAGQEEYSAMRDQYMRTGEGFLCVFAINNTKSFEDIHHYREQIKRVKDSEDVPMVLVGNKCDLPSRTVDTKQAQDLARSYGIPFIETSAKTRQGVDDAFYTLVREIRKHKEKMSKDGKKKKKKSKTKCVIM

KRAS G12V = biological target: T3, KRAS G12V (Homo sapiens, UniProt P01116, G12V); assay: HTRF assay, KRAS G12V interaction with SOS1; format: biochemical; settings: bins <500 nM / 500 nM to 1000 nM, read-out: Inhibition of KRAS G12V (IC50)
T3 construct: made in house; host or cells: E. coli, e.g. BL21 (DE3)
T3 sequence (P01116 1-188 isoform P01116-2 G12V): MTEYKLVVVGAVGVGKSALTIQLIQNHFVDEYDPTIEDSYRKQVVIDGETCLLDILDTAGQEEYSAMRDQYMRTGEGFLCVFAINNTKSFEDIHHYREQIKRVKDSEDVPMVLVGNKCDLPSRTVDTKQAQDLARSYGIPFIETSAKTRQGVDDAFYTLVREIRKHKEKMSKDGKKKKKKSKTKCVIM

KRAS G12S = biological target: T4, KRAS G12S (Homo sapiens, UniProt P01116, G12S); assay: HTRF assay, KRAS G12S interaction with SOS1; format: biochemical; settings: bins <500 nM / 500 nM to 1000 nM, read-out: Inhibition of KRAS G12S (IC50)
T4 construct: made in house; host or cells: E. coli, e.g. BL21 (DE3)
T4 sequence (P01116 1-188 isoform P01116-2 G12S): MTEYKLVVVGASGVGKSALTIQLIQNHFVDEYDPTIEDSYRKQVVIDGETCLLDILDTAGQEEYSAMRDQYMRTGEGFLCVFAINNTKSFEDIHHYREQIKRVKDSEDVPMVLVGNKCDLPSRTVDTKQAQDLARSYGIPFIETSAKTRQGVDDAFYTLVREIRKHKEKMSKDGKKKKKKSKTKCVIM

MiaPaca2 cells = assay: Ras cellular assay, growth of cells with K-Ras G12C mutation; format: cell-based; settings: Homo sapiens, MIA PaCa-2; cell proliferation assay; bins ≤500 nM / >500 nM; read-out: Inhibition of MiaPaca2 Cells (IC50)
Procedure, shortened: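 MIA PaCa-2 cells (K-Ras G12C, about 125-150 cells/well) grown in 0.25% soft agar over a 0.6% agar base, compound added on day 2 at 0.3% final DMSO. Growth read on day 10 by Cell Titer 96 AQueous absorbance (490 nm, reference 660 nm) against time-zero wells; IC50 from four-parameter fit.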

T1 sequence (P01116 1-188 isoform P01116-2 G12D): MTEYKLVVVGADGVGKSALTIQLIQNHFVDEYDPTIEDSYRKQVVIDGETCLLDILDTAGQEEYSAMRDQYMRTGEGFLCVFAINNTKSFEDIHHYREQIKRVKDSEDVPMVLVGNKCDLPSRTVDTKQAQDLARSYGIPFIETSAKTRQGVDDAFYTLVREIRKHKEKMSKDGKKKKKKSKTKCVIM

SMILES	IC50 (KRAS G12D) [nM]	IC50 (KRAS WT) [nM]	IC50 (KRAS G12V) [nM]	IC50 (KRAS G12S) [nM]	IC50 (MiaPaca2 cells) [nM]
Cc1nccn1C(=O)N1CC2(CCCCN(c3nc(OC[C@@]45CCCN4C[C@H](F)C5)nc4c(F)c(-c5ccc(F)c6sc(N)c(C#N)c56)c(Cl)cc34)C2)C1 [Compound 154, 2-amino-4-(6-chloro-8-fluoro-2-(((2R,7aS)-2-fluorotetrahydro-1H-pyrrolizin-7a(5H)-yl)methoxy)-4-(2-(2-methyl-1H-imidazole-1-carbonyl)-2,6-diazaspiro[3.6]decan-6-yl)quinazolin-7-yl)-7-fluorobenzo[b]thiophene-3-carbonitrile]	< 500	< 500	< 500	< 500	≤ 500
Cc1ncn(C(=O)N2C[C@]3(CCCCN(c4nc(OC[C@@]56CCCN5C[C@H](F)C6)nc5c(F)c(-c6ccc(F)c7sc(N)c(C#N)c67)c(Cl)cc45)C3)[C@H]2C)c1C [Compound 131, 2-amino-4-(6-chloro-4-((1R,4R)-2-(4,5-dimethyl-1H-imidazole-1-carbonyl)-1-methyl-2,6-diazaspiro[3.6]decan-6-yl)-8-fluoro-2-(((2R,7aS)-2-fluorotetrahydro-1H-pyrrolizin-7a(5H)-yl)methoxy)quinazolin-7-yl)-7-fluorobenzo[b]thiophene-3-carbonitrile]	< 500	< 500	< 500	< 500	≤ 500
C[C@@H]1[C@H](N(C)c2nc(OC[C@@]34CCCN3C[C@H](F)C4)nc3c(F)c(-c4ccc(F)c5sc(N)c(C#N)c45)c(Cl)cc23)CCN1C(=O)n1ccnc1 [Compound 124, 4-(4-(((2R,3R)-1-(1H-imidazole-1-carbonyl)-2-methylpyrrolidin-3-yl)(methyl)amino)-6-chloro-8-fluoro-2-(((2R,7aS)-2-fluorotetrahydro-1H-pyrrolizin-7a(5H)-yl)methoxy)quinazolin-7-yl)-2-amino-7-fluorobenzo[b]thiophene-3-carbonitrile]	< 500	< 500	< 500	< 500	≤ 500
N#Cc1c(N)sc2c(F)ccc(-c3c(Cl)cc4c(N5CCCCC6(CN(C(=O)n7ccnc7Br)C6)C5)nc(OC[C@@]56CCCN5C[C@H](F)C6)nc4c3F)c12 [Compound 119, 2-amino-4-(4-(2-(2-bromo-1H-imidazole-1-carbonyl)-2,6-diazaspiro[3.6]decan-6-yl)-6-chloro-8-fluoro-2-(((2R,7aS)-2-fluorotetrahydro-1H-pyrrolizin-7a(5H)-yl)methoxy)quinazolin-7-yl)-7-fluorobenzo[b]thiophene-3-carbonitrile]	< 500	< 500	< 500	< 500	≤ 500

Now from value to molecule:

IC50 (KRAS G12D) [nM]	IC50 (KRAS WT) [nM]	IC50 (KRAS G12V) [nM]	IC50 (KRAS G12S) [nM]	IC50 (MiaPaca2 cells) [nM]	SMILES
< 500	< 500	< 500	< 500	≤ 500	CCN(c1nc(OCC2(CN3CC4CCC(C3)O4)CC2)nc2c(F)c(-c3ccc(F)c4sc(N)c(C#N)c34)c(C(F)(F)F)cc12)[C@@H]1CCN(C(=O)n2cnc(Cl)n2)[C@@H]1C [Compound 204, (4S)-4-(2-((1-((8-oxa-3-azabicyclo[3.2.1]octan-3-yl)methyl)cyclopropyl)methoxy)-4-(((2R,3R)-1-(3-chloro-1H-1,2,4-triazole-1-carbonyl)-2-methylpyrrolidin-3-yl)(ethyl)amino)-8-fluoro-6-(trifluoromethyl)quinazolin-7-yl)-2-amino-7-fluorobenzo[b]thiophene-3-carbonitrile]
< 500	< 500	< 500	< 500	≤ 500	C[C@@H]1[C@H](N(C)c2nc(OC[C@@]34CCCN3C[C@H](F)C4)nc3c(F)c(-c4ccc(F)c5sc(N)c(C#N)c45)c(Cl)cc23)CCN1C(=O)n1cnc(C#N)c1 [Compound 199, 1-((2R,3R)-3-((7-(2-amino-3-cyano-7-fluorobenzo[b]thiophen-4-yl)-6-chloro-8-fluoro-2-(((2R,7aS)-2-fluorotetrahydro-1H-pyrrolizin-7a(5H)-yl)methoxy)quinazolin-4-yl)(methyl)amino)-2-methylpyrrolidine-1-carbonyl)-1H-imidazole-4-carbonitrile]
< 500	< 500	< 500	< 500	≤ 500	CCN(c1nc(OC[C@@]23CCCN2C[C@H](F)C3)nc2c(F)c(-c3ccc(F)c4sc(N)c(C#N)c34)c(Cl)cc12)[C@@H]1CCN(C(=O)n2ccc(C#N)n2)[C@@H]1C [Compound 136, 1-((2R,3R)-3-((7-(2-amino-3-cyano-7-fluorobenzo[b]thiophen-4-yl)-6-chloro-8-fluoro-2-(((2R,7aS)-2-fluorotetrahydro-1H-pyrrolizin-7a(5H)-yl)methoxy)quinazolin-4-yl)(ethyl)amino)-2-methylpyrrolidine-1-carbonyl)-1H-pyrazole-3-carbonitrile]
< 500	< 500	< 500	< 500	≤ 500	CCN(c1nc(OC[C@@]23CCCN2C[C@H](F)C3)nc2c(F)c(-c3ccc(F)c4sc(N)c(C#N)c34)c(Cl)cc12)[C@@H]1CCN(C(=O)n2ccnc2C#N)[C@@H]1C [Compound 188, 1-((2R,3R)-3-((7-(2-amino-3-cyano-7-fluorobenzo[b]thiophen-4-yl)-6-chloro-8-fluoro-2-(((2R,7aS)-2-fluorotetrahydro-1H-pyrrolizin-7a(5H)-yl)methoxy)quinazolin-4-yl)(ethyl)amino)-2-methylpyrrolidine-1-carbonyl)-1H-imidazole-2-carbonitrile]
< 500	< 500	< 500	< 500	≤ 500	CCN(c1nc(OC[C@@]23CCCN2C[C@H](F)C3)nc2c(F)c(-c3ccc(F)c4sc(N)c(C#N)c34)c(C(F)(F)F)cc12)[C@@H]1CCN(C(=O)n2ccc(Cl)n2)[C@@H]1C (atropisomer, axis not shown; (aS)) [Compound 193, (S)-2-amino-4-(4-(((2R,3R)-1-(3-chloro-1H-pyrazole-1-carbonyl)-2-methylpyrrolidin-3-yl)(ethyl)amino)-8-fluoro-2-(((2R,7aS)-2-fluorotetrahydro-1H-pyrrolizin-7a(5H)-yl)methoxy)-6-(trifluoromethyl)quinazolin-7-yl)-7-fluorobenzo[b]thiophene-3-carbonitrile]
< 500	< 500	< 500	< 500	≤ 500	CC(C)[C@@H]1[C@H](N(C)c2nc(OC[C@@]34CCCN3C[C@H](F)C4)nc3c(F)c(-c4ccc(F)c5sc(N)c(C#N)c45)c(Cl)cc23)CCN1C(=O)n1ccnc1 [Compound 169, 4-(4-(((2R,3R)-1-(1H-imidazole-1-carbonyl)-2-isopropylpyrrolidin-3-yl)(methyl)amino)-6-chloro-8-fluoro-2-(((2R,7aS)-2-fluorotetrahydro-1H-pyrrolizin-7a(5H)-yl)methoxy)quinazolin-7-yl)-2-amino-7-fluorobenzo[b]thiophene-3-carbonitrile]
